Experiments:
bamyardgrass = test: Test B flood test barnyardgrass; assay type: in vivo, Echinochloa crus-galli
Outline: (§1)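 Flood test on plants grown to the 2-leaf stage; treated plants kept in greenhouse twelve to sixteen days, then visually rated against controls on a 0 (no effect) to 10 (complete control) scale.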

soybean = test: Test B pre/postemergence soybean; assay type: in vivo, Glycine max
Outline: (§2)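 Test chemicals in a non-phytotoxic solvent mixture with surfactant were sprayed preemergence onto planted seeds and postemergence onto plants 2 to 18 cm tall (1- to 4-leaf stage). After twelve to sixteen days in a greenhouse, injury was visually rated against untreated controls from 0 (no effect) to 10 (complete control).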

cocklebur = test: Test B pre/postemergence cocklebur; assay type: in vivo, Xanthium strumarium
Outline: as §2

velvetleaf = test: Test B pre/postemergence velvetleaf; assay type: in vivo, Abutilon theophrasti
Outline: as §2

smallflower flatsedge = test: Test B flood test smallflower flatsedge; assay type: in vivo, Cyperus difformis
Outline: as §1

giant foxtail = test: Test B pre/postemergence giant foxtail; assay type: in vivo, Setaria faberii
Outline: as §2

morningglory = test: Test B pre/postemergence morningglory; assay type: in vivo, Ipomoea hederacea
Outline: as §2

crabgrass = test: Test B pre/postemergence crabgrass; assay type: in vivo, Digitaria sanguinalis
Outline: as §2

surinam grass = test: Test B pre/postemergence surinam grass; assay type: in vivo, Brachiaria decumbens
Outline: as §2

wheat = test: Test B pre/postemergence wheat; assay type: in vivo, Triticum aestivum
Outline: as §2

pigweed = test: Test B pre/postemergence pigweed; assay type: in vivo, Amaranthus retroflexus
Outline: as §2

corn = test: Test B pre/postemergence corn; assay type: in vivo, Zea mays
Outline: as §2

sugar beet = test: Test B pre/postemergence sugar beet; assay type: in vivo, Beta vulgaris
Outline: as §2

rape = test: Test B pre/postemergence rape; assay type: in vivo, Brassica napus
Outline: as §2

rice = test: Test B flood test rice; assay type: in vivo, Oryza sativa
Outline: as §1

blackgrass = test: Test B pre/postemergence blackgrass; assay type: in vivo, Alopecurus myosuroides
Outline: as §2

purple nutsedge = test: Test B pre/postemergence purple nutsedge; assay type: in vivo, Cyperus rotundus
Outline: as §2

wild oat = test: Test B pre/postemergence wild oat; assay type: in vivo, Avena fatua
Outline: as §2

duck salad = test: Test B flood test duck salad; assay type: in vivo, Heteranthera limosa
Outline: as §1

bedstraw = test: Test B pre/postemergence bedstraw; assay type: in vivo, Galium aparine; conditions: Postemergence; for Plant response rating, Bedstraw: scale 0 to 10, 0 is no effect, 10 is complete control; for Bedstraw plant response rating: scale of 0 to 10 where 0 is no effect and 10 is complete control
Outline: as §2

[1] = Rate 62 g/ha, flood test species, Pre-emergence, visual evaluation after twelve to sixteen days
[2] = Rate 125 g/ha, under heading Pre-emergence, flood test species, visual evaluation after twelve to sixteen days
[3] = Rate 250 g/ha, Pre-emergence, flood-test species, scale 0 to 10, 0 is no effect, 10 is complete control
[4] = Rate 500 g/ha, Pre-emergence, flood test species, scale 0 to 10 (0 no effect, 10 complete control)
[5] = Postemergence, Rate 250 g/ha, scale 0 to 10, 0 is no effect, 10 is complete control
[6] = Postemergence, Rate 500 g/ha, scale of 0 to 10 where 0 is no effect and 10 is complete control
[7] = Preemergence, Rate 62 g/ha, scale 0 to 10 (0 no effect, 10 complete control)
[8] = Preemergence, Rate 125 g/ha, scale of 0 to 10 where 0 is no effect and 10 is complete control
[9] = Preemergence, Rate 250 g/ha, scale 0 to 10, 0 is no effect, 10 is complete control
[10] = Preemergence, Rate 500 g/ha, scale 0 to 10, 0 is no effect, 10 is complete control
[11] = Postemergence, Rate 125 g/ha, scale 0 to 10, 0 is no effect, 10 is complete control
[12] = Rate 62 g/ha, Postemergence, scale of 0 to 10 where 0 is no effect and 10 is complete control
[13] = Preemergence, Rate 250 g/ha, scale of 0 to 10 where 0 is no effect and 10 is complete control

CC(C)N(C(=O)n1oc(=O)n(C)c1=O)c1ccccc1 [Compound 409]
Plant response rating, Barnyardgrass (0 to 10 scale, 0 is no effect, 10 is complete control) (bamyardgrass; [1]): 1 | Barnyardgrass plant response rating (0 to 10 scale, 0 is no effect, 10 is complete control) (bamyardgrass; [2]): 2 | Barnyardgrass plant response rating (bamyardgrass; [3]): 3 | Barnyardgrass plant response rating (bamyardgrass; [4]): 3 | Plant response rating, Soybean (soybean; [5]): 5 | Soybean plant response rating (soybean; [6]): 5 | Plant response rating, Soybean (soybean; [7]): 0 | Plant response rating, Soybean (soybean; [8]): 0 | Soybean plant response rating (soybean; [9]): 1 | Soybean plant response rating (soybean; [10]): 8 | Plant response rating, Cocklebur (cocklebur; [11]): 0 | Cocklebur plant response rating (cocklebur; [6]): 1 | Plant response rating, Cocklebur (cocklebur; [7]): 0 | Plant response rating, Cocklebur (cocklebur; [8]): 0 | Cocklebur plant response rating (cocklebur; [10]): 2 | Cocklebur plant response rating (cocklebur; [12]): 0 | Plant response rating, Velvetleaf (velvetleaf; [5]): 0 | Velvetleaf plant response rating (velvetleaf; [6]): 0 | Plant response rating, Velvetleaf (velvetleaf; [7]): 2 | Plant response rating, Velvetleaf (velvetleaf; [8]): 5 | Velvetleaf plant response rating (velvetleaf; [9]): 6 | Velvetleaf plant response rating (velvetleaf; [10]): 8 | Plant response rating, S. Flatsedge (0 to 10 scale, 0 is no effect, 10 is complete control) (smallflower flatsedge; [1]): 0 | S. Flatsedge plant response rating (0 to 10 scale, 0 is no effect, 10 is complete control) (smallflower flatsedge; [2]): 0 | S. Flatsedge plant response rating (smallflower flatsedge; [3]): 2 | S. Flatsedge plant response rating (smallflower flatsedge; [4]): 2 | Plant response rating, Giant foxtail (giant foxtail; [11]): 8 | Plant response rating, Giant foxtail (giant foxtail; [5]): 9 | Giant foxtail plant response rating (giant foxtail; [6]): 9 | Plant response rating, Giant foxtail (giant foxtail; [7]): 9 | Plant response rating, Giant foxtail (giant foxtail; [8]): 10 | Giant foxtail plant response rating (giant foxtail; [9]): 10 | Giant foxtail plant response rating (giant foxtail; [10]): 10 | Giant foxtail plant response rating (giant foxtail; [12]): 8 | Plant response rating, Morningglory (morningglory; [5]): 9 | Morningglory plant response rating (morningglory; [6]): 10 | Plant response rating, Morningglory (morningglory; [7]): 0 | Plant response rating, Morningglory (morningglory; [8]): 2 | Morningglory plant response rating (morningglory; [9]): 5 | Morningglory plant response rating (morningglory; [10]): 5 | Plant response rating, Crabgrass (crabgrass; [11]): 9 | Plant response rating, Crabgrass (crabgrass; [5]): 9 | Crabgrass plant response rating (crabgrass; [6]): 9 | Plant response rating, Crabgrass (crabgrass; [7]): 9 | Plant response rating, Crabgrass (crabgrass; [8]): 9 | Crabgrass plant response rating (crabgrass; [9]): 10 | Crabgrass plant response rating (crabgrass; [10]): 10 | Crabgrass plant response rating (crabgrass; [12]): 6 | Plant response rating, B. signalgrass (surinam grass; [11]): 5 | Plant response rating, B. signalgrass (surinam grass; [5]): 8 | B. signalgrass plant response rating (surinam grass; [6]): 9 | Plant response rating, B. signalgrass (surinam grass; [7]): 0 | Plant response rating, B. signalgrass (surinam grass; [8]): 4 | B. signalgrass plant response rating (surinam grass; [13]): 7 | B. signalgrass plant response rating (surinam grass; Preemergence, Rate 500 g/ha, scale of 0 to 10 where 0 is no effect and 10 is complete control): 9 | B. signalgrass plant response rating (surinam grass; [12]): 3 | Wheat plant response rating (wheat; [6]): 7 | Plant response rating, Wheat (wheat; [7]): 4 | Plant response rating, Wheat (wheat; [8]): 8 | Wheat plant response rating (wheat; [9]): 9 | Wheat plant response rating (wheat; [10]): 10 | Plant response rating, Redroot pigweed (pigweed; [5]): 4 | Redroot pigweed plant response rating (pigweed; [6]): 5 | Plant response rating, Redroot pigweed (pigweed; [7]): 7 | Plant response rating, Redroot pigweed (pigweed; [8]): 8 | Redroot pigweed plant response rating (pigweed; [9]): 8 | Redroot pigweed plant response rating (pigweed; [10]): 10 | Plant response rating, Corn (corn; [11]): 5 | Plant response rating, Corn (corn; [5]): 7 | Corn plant response rating (corn; [6]): 7 | Plant response rating, Corn (corn; [7]): 7 | Plant response rating, Corn (corn; [8]): 8 | Corn plant response rating (corn; [9]): 8 | Corn plant response rating (corn; [10]): 10 | Corn plant response rating (corn; [12]): 0 | Plant response rating, Sugarbeets (sugar beet; [5]): 0 | Sugarbeets plant response rating (sugar beet; [6]): 0 | Plant response rating, Sugarbeets (sugar beet; [7]): 2 | Plant response rating, Sugarbeets (sugar beet; [8]): 7 | Sugarbeets plant response rating (sugar beet; [9]): 8 | Sugarbeets plant response rating (sugar beet; [10]): 9 | Plant response rating, Rape (rape; [5]): 3 | Plant response rating, Rape (rape; [7]): 0 | Plant response rating, Rape (rape; [8]): 0 | Rape plant response rating (rape; [9]): 4 | Rape plant response rating (rape; [10]): 6 | Plant response rating, Rice (0 to 10 scale, 0 is no effect, 10 is complete control) (rice; [1]): 0 | Rice plant response rating (0 to 10 scale, 0 is no effect, 10 is complete control) (rice; [2]): 0 | Rice plant response rating (rice; [3]): 0 | Rice plant response rating (rice; [4]): 0 | Plant response rating, Blackgrass (blackgrass; [11]): 8 | Plant response rating, Blackgrass (blackgrass; [5]): 9 | Blackgrass plant response rating (blackgrass; [6]): 10 | Plant response rating, Blackgrass (blackgrass; [7]): 4 | Plant response rating, Blackgrass (blackgrass; [8]): 7 | Blackgrass plant response rating (blackgrass; [13]): 10 | Blackgrass plant response rating (blackgrass; [10]): 10 | Blackgrass plant response rating (blackgrass; [12]): 6 | Plant response rating, Nutsedge (purple nutsedge; [5]): 0 | Nutsedge plant response rating (purple nutsedge; [6]): 0 | Nutsedge plant response rating (purple nutsedge; [9]): 8 | Nutsedge plant response rating (purple nutsedge; [10]): 8 | Wild oats plant response rating (wild oat; [6]): 4 | Plant response rating, Wild oats (wild oat; [7]): 0 | Plant response rating, Wild oats (wild oat; [8]): 5 | Wild oats plant response rating (wild oat; [9]): 7 | Wild oats plant response rating (wild oat; [10]): 8 | Plant response rating, Ducksalad (0 to 10 scale, 0 is no effect, 10 is complete control) (duck salad; [1]): 0 | Ducksalad plant response rating (0 to 10 scale, 0 is no effect, 10 is complete control) (duck salad; [2]): 0 | Ducksalad plant response rating (duck salad; [3]): 0 | Ducksalad plant response rating (duck salad; [4]): 0 | Plant response rating, Bedstraw (bedstraw; Rate 125 g/ha): 2 | Plant response rating, Bedstraw (bedstraw; Rate 250 g/ha): 2 | Bedstraw plant response rating (bedstraw; Rate 500 g/ha): 5 | Bedstraw plant response rating (bedstraw; Rate 62 g/ha): 0

Source: patent US6737383B1, “Herbicidal oxadiazolidines” (priority 1999, dated 2004)
